From ChEMBL document CHEMBL1201862, “PubChem BioAssay data set” (2004)
The source made the active and inactive calls.

How the values were obtained:
[1] = viability of HCT116 lacking mutant beta-catenin – cell-based, human colon tumor, dose response (AID 1045); assay type: functional;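 also: HCT116 colon tumor cells with beta catenin knocked out; cells exposed to compound for 60 hours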
[2] = viability of PTEN-deleted HCT116 cells – cell-based, HCT116 PTEN knockout, dose response (AID 1047); assay type: functional;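 also: HCT116 colon tumor cells with PTEN knocked out; cells exposed to compound for 60 hours before readout; potency for loss of cell viability measured by luminescence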
Beta-galactosidase = Beta-galactosidase (Escherichia coli, UniProt Q8VNN2); assay: PubChem AID 485352; assay type: functional
Beta-galactosidase, sequence (Q8VNN2 whole entry): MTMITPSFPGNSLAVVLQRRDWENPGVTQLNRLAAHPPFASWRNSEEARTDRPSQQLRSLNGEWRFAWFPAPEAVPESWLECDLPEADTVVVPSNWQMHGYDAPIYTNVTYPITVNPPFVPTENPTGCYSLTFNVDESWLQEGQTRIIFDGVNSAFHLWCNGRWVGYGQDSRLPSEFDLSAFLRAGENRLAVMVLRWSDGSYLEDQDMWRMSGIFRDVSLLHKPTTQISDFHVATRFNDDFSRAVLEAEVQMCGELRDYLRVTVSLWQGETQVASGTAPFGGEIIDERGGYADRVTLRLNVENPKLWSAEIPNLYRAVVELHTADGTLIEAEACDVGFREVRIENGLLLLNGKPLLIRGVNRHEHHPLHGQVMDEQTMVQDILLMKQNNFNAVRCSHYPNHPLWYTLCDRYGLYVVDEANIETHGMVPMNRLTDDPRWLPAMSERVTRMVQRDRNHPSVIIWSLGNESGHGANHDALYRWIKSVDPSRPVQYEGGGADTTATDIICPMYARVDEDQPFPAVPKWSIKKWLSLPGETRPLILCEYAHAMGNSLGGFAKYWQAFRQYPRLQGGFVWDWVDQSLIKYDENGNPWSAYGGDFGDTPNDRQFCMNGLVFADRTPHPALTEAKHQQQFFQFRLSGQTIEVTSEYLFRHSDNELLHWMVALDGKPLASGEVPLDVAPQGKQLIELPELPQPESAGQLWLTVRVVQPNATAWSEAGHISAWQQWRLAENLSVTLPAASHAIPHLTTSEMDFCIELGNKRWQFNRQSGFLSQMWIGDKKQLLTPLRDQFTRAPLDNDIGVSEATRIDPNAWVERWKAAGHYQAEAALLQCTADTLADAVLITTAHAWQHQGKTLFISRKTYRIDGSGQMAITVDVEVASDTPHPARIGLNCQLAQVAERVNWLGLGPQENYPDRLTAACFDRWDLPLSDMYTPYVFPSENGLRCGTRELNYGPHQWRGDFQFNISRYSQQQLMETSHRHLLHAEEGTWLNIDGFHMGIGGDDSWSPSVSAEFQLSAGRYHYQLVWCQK

[3] = cAMP pathway inhibition in counterscreen cell line – TR-FRET cAMP detection, counter-screen for MC4R biased antagonist project, dose response (AID 602305); assay type: functional, cell-based;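 also: U2OS cells stimulated with forskolin near its EC80 as the cAMP inducer; potency is for inhibition of forskolin-stimulated cAMP signaling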
[4] = target: Beta-2 adrenergic receptor (Homo sapiens, UniProt P07550); assay: ADRB2 activation measured by internalization – cell-based, FAP fluorogen, flow cytometry, cherry pick 1, dose response (AID 588763); assay type: functional
Beta-2 adrenergic receptor, sequence (P07550 whole entry): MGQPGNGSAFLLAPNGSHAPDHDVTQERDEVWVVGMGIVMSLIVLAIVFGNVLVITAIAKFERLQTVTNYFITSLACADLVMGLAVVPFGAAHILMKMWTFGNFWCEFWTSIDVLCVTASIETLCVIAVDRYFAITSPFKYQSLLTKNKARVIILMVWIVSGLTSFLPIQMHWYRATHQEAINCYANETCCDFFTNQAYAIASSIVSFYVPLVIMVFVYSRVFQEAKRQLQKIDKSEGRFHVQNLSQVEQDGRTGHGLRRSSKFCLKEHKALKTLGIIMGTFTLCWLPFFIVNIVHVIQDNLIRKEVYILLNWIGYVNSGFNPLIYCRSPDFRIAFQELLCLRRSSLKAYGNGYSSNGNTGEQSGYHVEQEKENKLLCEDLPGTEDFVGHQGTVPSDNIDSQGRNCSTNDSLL

[5] = target: T1, Type-1 angiotensin II receptor (Homo sapiens, UniProt P30556); assay: antagonism of angiotensin II type 1 receptor – cell-based, uHTS hits, selectivity assay for APJ receptor antagonist project, dose response (AID 463214); assay type: functional;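 also: antagonist potency against angiotensin II stimulated AT1 response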
T1 sequence (P30556 whole entry): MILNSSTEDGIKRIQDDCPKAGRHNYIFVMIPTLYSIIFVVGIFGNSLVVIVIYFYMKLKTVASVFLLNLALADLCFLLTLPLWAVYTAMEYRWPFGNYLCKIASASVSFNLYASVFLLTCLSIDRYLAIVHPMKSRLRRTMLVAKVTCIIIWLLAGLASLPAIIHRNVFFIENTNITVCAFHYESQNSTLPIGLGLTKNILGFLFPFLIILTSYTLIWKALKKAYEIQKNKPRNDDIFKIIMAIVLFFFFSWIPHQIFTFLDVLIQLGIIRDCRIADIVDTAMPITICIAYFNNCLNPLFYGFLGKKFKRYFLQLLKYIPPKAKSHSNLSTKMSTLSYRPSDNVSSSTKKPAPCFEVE

[6] = Luminescence Cell-Based Dose Retest to Confirm Inhibitors of Cancer Stem Cells. [Related pubchem assays (depositor defined):AID2717, AID2721]; assay type: functional; details: Homo sapiens
Melanocortin receptor 4 [7] = target: T2, Melanocortin receptor 4 (Homo sapiens, UniProt P32245); assay: inhibitors of MC4R cAMP signaling – cell-based, TR-FRET, biased antagonists, dose response (AID 602298); assay type: functional;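 also: antagonist potency against agonist-stimulated cAMP production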
T2 sequence (P32245 whole entry): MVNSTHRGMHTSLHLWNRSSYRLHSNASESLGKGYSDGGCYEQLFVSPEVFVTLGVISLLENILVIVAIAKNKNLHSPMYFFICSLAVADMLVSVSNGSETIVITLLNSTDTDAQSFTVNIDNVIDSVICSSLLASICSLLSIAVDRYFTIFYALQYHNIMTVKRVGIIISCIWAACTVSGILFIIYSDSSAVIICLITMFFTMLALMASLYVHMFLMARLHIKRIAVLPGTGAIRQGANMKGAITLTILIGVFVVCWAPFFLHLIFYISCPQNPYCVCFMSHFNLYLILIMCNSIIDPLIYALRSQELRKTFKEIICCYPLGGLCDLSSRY

[8] = target: T3, Sentrin-specific protease 8 (Homo sapiens, UniProt Q96LD8); assay type: functional
T3 sequence (Q96LD8 whole entry): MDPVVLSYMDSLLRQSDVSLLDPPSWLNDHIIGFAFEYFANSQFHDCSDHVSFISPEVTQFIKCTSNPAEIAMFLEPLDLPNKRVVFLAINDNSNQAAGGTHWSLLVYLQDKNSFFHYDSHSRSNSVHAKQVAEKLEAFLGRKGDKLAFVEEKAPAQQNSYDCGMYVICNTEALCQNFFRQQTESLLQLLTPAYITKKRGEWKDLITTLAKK

[9] = target: T3, Sentrin-specific protease 8; assay type: functional; remark: listed apart in the source
[10] = target: T4, Microphthalmia-associated transcription factor (Homo sapiens, UniProt O75030); assay: reducers of TRPM1 reporter luminescence, concentration series – cell-based, SK-MEL-5, cherry-picked, set 3, MITF inhibitor project, dose response (AID 493073); assay type: functional;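 also: SK-MEL-5 melanoma cells with luciferase driven by the MITF target TRPM1 promoter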
T4 sequence (O75030 whole entry): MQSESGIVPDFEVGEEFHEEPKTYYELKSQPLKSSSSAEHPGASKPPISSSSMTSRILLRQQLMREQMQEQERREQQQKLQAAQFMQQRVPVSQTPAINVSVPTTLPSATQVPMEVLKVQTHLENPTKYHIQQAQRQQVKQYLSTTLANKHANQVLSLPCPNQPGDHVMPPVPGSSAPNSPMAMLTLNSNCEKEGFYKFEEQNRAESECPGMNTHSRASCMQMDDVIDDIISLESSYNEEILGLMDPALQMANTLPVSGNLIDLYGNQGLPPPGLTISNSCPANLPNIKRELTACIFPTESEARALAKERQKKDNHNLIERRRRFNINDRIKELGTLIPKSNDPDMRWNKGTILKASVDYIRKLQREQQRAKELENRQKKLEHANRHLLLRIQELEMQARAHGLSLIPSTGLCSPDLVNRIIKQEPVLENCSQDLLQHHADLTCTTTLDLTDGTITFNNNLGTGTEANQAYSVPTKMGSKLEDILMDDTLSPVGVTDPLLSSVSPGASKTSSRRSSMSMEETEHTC

[11] = target: T5, Long-chain-fatty-acid--AMP ligase FadD28 (Mycobacterium tuberculosis, UniProt P9WQ59); assay: Fluorescence polarization aasay to screen for inhibitors that compete for the binding of FadD28 to a bisubstrate Measured in Biochemical System Using Plate Reader - 2147-01_Inhibitor_Dose_CherryPick_Activity.; assay type: functional, Mycobacterium tuberculosis H37Rv
T5 sequence (P9WQ59 whole entry): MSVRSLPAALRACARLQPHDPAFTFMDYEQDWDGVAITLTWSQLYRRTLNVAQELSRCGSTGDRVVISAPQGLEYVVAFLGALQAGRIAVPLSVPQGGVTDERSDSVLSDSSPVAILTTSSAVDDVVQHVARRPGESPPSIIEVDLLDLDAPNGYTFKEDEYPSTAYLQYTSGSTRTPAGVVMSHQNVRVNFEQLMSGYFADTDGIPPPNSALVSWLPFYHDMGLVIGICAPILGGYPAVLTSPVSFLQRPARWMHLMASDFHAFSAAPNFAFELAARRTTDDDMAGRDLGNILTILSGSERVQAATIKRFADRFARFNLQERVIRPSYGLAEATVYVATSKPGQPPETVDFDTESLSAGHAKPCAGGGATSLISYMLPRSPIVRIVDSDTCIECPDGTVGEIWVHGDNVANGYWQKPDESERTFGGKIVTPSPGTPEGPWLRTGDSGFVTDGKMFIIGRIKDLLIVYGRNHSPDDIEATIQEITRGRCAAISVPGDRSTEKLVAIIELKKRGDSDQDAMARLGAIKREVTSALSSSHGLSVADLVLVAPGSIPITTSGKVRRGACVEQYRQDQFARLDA

[12] = target: T6, Probable nicotinate-nucleotide adenylyltransferase (Staphylococcus aureus (strain N315), UniProt P65502); assay type: functional, Staphylococcus aureus subsp. aureus N315;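 as to IC50 Mean: confirmatory dose-response retesting of NadD inhibitor hits first found in an ultra-high-throughput screen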
T6 sequence (P65502 whole entry): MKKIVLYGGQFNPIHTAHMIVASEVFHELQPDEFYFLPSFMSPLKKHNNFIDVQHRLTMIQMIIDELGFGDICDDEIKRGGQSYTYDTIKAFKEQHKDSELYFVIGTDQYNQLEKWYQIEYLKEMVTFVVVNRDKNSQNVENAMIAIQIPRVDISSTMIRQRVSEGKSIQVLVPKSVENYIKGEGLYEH

[13] = target: T6, Probable nicotinate-nucleotide adenylyltransferase; assay type: functional, Staphylococcus aureus subsp. aureus N315; details: read-out: IC50_Mean
[14] = target: T7, Small ubiquitin-related modifier 1 (Homo sapiens, UniProt P63165); assay: SUMO1 protein interaction blockers, potency – biochemical, fluorescence polarization, uHTS hits, dose response (AID 624382); assay type: functional; details: read-out: IC50_Mean
T7 sequence (P63165 whole entry): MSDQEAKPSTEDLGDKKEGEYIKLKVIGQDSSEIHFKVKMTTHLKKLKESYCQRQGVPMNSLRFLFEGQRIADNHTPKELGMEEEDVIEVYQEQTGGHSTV

[15] = target: T8, Rac GTPase-activating protein 1 (Homo sapiens, UniProt Q9H0H5); assay: blockers of MgcRacGAP-driven Rac1 GTP hydrolysis – biochemical, ADP Hunter fluorescence, primary and confirmatory, confirmation (AID 624330); assay type: functional
T8 sequence (Q9H0H5 whole entry): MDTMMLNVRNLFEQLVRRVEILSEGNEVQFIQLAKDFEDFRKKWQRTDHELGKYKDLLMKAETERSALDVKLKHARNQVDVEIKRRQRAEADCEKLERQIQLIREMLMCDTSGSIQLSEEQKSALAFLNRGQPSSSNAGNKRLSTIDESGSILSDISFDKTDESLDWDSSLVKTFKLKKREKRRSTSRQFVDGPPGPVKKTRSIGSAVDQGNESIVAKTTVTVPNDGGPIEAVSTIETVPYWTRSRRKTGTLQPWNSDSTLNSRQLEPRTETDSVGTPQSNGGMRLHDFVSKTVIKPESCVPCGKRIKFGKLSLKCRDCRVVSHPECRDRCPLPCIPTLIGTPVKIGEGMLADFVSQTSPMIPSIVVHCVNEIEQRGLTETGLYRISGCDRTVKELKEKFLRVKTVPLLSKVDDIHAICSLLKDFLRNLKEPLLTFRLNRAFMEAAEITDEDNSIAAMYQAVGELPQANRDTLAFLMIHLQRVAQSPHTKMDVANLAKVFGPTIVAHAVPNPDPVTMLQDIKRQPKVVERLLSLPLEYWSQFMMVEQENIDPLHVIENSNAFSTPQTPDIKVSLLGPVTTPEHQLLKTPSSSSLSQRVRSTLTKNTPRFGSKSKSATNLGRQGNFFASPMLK

[16] = target: T7, Small ubiquitin-related modifier 1; assay: SUMO1 protein-protein binding blockers, potency – biochemical, FRET, dose response (AID 624383); assay type: functional; details: read-out: IC50_Mean
[17] = target: Ras and Rab interactor 1/Tyrosine-protein kinase ABL1 (Homo sapiens, UniProt P00519+Q13671); assay type: functional;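 also: biochemical TR-FRET dose-response test measuring inhibition of binding between Rin1 and Abl proteins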
Ras and Rab interactor 1/Tyrosine-protein kinase ABL1, sequence (P00519 whole entry): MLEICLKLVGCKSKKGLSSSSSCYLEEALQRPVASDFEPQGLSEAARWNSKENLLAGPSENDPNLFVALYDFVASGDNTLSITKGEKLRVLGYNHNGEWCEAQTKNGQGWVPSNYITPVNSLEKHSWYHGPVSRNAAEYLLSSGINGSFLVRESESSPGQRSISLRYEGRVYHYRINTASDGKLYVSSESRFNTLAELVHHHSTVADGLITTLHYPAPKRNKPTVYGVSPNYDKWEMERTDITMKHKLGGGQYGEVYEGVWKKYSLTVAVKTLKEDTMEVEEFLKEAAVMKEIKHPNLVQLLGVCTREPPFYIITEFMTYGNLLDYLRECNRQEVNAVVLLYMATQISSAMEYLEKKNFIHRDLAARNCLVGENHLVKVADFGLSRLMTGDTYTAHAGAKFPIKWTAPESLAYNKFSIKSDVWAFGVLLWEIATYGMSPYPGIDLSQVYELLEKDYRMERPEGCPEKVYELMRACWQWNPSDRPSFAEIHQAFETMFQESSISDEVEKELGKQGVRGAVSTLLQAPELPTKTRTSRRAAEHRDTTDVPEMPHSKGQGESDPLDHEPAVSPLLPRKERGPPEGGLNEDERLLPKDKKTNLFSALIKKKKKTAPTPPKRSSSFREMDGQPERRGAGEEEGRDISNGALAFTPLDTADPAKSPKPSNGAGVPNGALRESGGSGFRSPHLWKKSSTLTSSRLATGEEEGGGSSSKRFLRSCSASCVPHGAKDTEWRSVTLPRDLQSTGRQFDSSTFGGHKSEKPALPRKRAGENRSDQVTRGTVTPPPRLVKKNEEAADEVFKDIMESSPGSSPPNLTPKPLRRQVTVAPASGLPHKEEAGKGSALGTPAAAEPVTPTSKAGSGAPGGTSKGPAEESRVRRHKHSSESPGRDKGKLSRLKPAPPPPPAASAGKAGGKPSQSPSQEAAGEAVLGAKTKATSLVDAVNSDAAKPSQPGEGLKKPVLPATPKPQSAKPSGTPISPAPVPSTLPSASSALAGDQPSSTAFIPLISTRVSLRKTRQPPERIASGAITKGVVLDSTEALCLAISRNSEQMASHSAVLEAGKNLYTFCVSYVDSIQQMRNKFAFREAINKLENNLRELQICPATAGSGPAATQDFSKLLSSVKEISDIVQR
Ras and Rab interactor 1/Tyrosine-protein kinase ABL1, sequence (Q13671 whole entry): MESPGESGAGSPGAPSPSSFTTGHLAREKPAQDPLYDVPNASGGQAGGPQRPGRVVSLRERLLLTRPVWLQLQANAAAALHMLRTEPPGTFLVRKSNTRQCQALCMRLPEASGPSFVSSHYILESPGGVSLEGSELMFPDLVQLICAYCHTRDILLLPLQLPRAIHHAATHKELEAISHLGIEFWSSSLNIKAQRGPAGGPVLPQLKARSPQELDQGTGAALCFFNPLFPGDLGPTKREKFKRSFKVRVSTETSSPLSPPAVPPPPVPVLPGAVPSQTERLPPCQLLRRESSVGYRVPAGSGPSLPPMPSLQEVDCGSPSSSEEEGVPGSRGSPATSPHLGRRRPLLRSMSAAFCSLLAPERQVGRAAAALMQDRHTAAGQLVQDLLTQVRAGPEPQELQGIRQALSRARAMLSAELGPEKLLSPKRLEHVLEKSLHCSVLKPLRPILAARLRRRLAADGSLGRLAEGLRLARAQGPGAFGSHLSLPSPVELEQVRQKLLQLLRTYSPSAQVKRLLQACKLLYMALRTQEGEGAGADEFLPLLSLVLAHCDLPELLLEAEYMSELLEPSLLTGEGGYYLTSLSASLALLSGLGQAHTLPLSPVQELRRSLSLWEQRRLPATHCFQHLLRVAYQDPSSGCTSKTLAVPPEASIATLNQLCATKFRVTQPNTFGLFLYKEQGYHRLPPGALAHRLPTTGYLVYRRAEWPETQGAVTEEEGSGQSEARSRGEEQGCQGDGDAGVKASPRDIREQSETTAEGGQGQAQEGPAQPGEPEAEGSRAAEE

[18] = viability loss in HeLa cells – cytotoxicity control for MgcRacGAP inhibitor project, dose response (AID 624300); assay type: functional
[19] = NIH3T3 cell viability loss – ATP luminescence, mouse fibroblasts, counter-screen, dose response (AID 2010); assay type: functional, cell-based;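 also: cells exposed to compound for about 90 hours before reading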
[20] = Trypanosoma cruzi growth suppression in host cells – NIH3T3 host cells, beta-gal luminescence, confirmation (AID 2044); assay type: functional, cell-based;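 also: intracellular parasites grown in NIH/3T3 mouse fibroblasts as host cells; luminescent beta-galactosidase reporter signal from transgenic T. cruzi replicating inside host cells; inhibitors lower the luminescence signal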
Melanocortin receptor 4 [21] = target: T2, Melanocortin receptor 4; assay type: functional, cell-based
Paired box protein Pax-8 = Paired box protein Pax-8 (Homo sapiens, UniProt Q06710); assay: PAX8 transcriptional activity inhibition in RMG-I – RMG-I cells, luciferase, cherry-pick, dose response (AID 687027); assay type: functional, cell-based;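 also: luciferase reporter driven by Pax8 target thyroperoxidase promoter measured by SteadyGlo luminescence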
Paired box protein Pax-8, sequence (Q06710 whole entry): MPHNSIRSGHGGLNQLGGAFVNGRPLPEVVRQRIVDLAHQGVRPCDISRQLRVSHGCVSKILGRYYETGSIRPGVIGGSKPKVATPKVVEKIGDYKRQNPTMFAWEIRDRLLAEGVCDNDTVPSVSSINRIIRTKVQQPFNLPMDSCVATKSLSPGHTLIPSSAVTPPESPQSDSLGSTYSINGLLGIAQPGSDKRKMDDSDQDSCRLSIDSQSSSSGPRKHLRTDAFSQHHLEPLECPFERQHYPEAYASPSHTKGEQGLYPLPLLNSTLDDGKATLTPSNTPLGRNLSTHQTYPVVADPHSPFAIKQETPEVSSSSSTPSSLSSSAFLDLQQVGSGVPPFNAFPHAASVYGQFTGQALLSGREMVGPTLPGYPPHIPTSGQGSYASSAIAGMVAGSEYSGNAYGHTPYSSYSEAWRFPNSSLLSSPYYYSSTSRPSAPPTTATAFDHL

[22] = activation of miR-122 Renilla sensor silencing – cell-based, Huh7 psiCHECK-miR122, Renilla luciferase, cherry-picked, dose response (AID 651956); assay type: functional;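 also: huh7 hepatoma cells stably carrying a psiCHECK-2 miR-122 sensor plasmid; renilla luciferase signal reporting endogenous miR-122 activity after 48 h compound exposure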
[23] = target: T9, DNA repair and recombination protein RAD54-like (Homo sapiens, UniProt Q92698); assay: RAD54 Holliday junction migration blockers – biochemical, fluorescence, cherry-picked samples, dose series, confirmation (AID 651657); assay type: functional
T9 sequence (Q92698 whole entry): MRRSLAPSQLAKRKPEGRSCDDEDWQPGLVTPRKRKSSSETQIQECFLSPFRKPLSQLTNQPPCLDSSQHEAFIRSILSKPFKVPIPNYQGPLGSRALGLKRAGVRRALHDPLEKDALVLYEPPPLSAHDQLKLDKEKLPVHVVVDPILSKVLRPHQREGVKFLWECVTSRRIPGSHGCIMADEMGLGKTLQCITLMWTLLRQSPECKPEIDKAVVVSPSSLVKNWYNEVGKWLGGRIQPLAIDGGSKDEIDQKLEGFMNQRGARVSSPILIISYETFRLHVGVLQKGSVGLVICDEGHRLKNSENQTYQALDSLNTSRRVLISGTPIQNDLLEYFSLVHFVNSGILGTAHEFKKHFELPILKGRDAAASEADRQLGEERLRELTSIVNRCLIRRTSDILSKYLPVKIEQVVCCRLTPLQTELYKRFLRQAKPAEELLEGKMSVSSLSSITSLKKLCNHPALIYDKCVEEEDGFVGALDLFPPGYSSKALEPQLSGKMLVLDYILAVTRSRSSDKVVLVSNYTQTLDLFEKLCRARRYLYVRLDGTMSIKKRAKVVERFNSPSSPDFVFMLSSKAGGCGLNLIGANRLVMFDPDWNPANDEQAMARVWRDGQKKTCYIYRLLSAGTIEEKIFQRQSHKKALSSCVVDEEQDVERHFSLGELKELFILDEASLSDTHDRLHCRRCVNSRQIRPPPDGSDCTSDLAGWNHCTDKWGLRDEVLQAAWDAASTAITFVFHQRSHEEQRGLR

Compound: CC(C)Cc1nc2oc3c(Cl)ncnc3c2c2c1CCC2
- EC50 [1]: 8.07 µM (active)
- EC50 [2]: 18 µM (active)
- EC50 (Beta-galactosidase): > 40 µM (inactive)
- IC50 [3]: > 64.6 µM (inactive)
- EC50 [4]: 11.8 µM (inactive)
- IC50 [5]: > 40 µM (not active)
- AC50 [6]: 4.61 µM (active)
- IC50 (Melanocortin receptor 4 [7]): > 64.6 µM (inactive)

Compound: O=C(CCCn1c(=O)oc2ccccc21)N1CCc2ccccc2C1
- IC50 [8]: 8 µM (active)
- IC50 [9]: > 100 µM (inactive)

Compound: O=C(O)c1cccc(N/N=C/c2ccc(OC(F)(F)F)cc2)c1
- AC50 [10]: 5.95 µM (active)
- AC50 [11]: 39.7 µM (active)

Compound: O=C1NC[C@@H](CCCCN2C[C@H](Cc3ccc(O)cc3)N(CCC3CCCCC3)C(=O)C2=O)N(CC2CCCCC2)C1=O
- IC50 [12]: 8.3 µM (active)
- IC50 [13]: 37.2 µM (active)

Compound: NNc1ccc([N+](=O)[O-])c2n[nH]c(O)c12
- IC50 [14]: > 66.6 µM (inactive)
- IC50 [15]: 76.8 µM (active)
- IC50 [16]: 5.04 µM (active)

Compound: O=C(Cc1ccc(NC(=O)C2CCN(C(=O)C3CCCCC3)CC2)cc1)Nc1ccc(C(=O)N2CCOCC2)cc1
- IC50 [17]: 5.51 µM (active)

Compound: COc1ccc(Br)cc1CNCCc1cccc(Cl)c1
- IC50 [15]: 130 µM (active)
- CC50 [18]: 100 µM (active)
- EC50 [19]: > 60 µM (not active)
- EC50 [20]: 1.12 µM (active)

Compound: CCN1CCN(Cc2ccc(NC(=O)c3cc(NC(=O)C(=O)c4c[nH]c5ccccc45)cc(OC)c3)cc2C(F)(F)F)CC1
- EC50 (Melanocortin receptor 4 [21]): > 89.2 µM (inactive)
- AC50 (Paired box protein Pax-8): 8.98 µM (active)

Compound: Cc1cccc(N2CCN(C(=O)c3ccc4c(c3)NC(=O)C(CSCc3cccc(F)c3)N4)CC2C)c1 (centres undefined)
- IC50 [12]: 3.09 µM (active)
- IC50 [13]: 13.8 µM (active)

Compound: COc1ccc(/C=N/NC(=O)Cn2c(Cc3ccc(OC)c(OC)c3)nc3ccccc32)cc1
- IC50 [17]: > 73.4 µM (inactive)

Compound: C#CCN(C[C@H]1[C@H](OC(=O)NCc2ccccc2)[C@H](OC(=O)NCc2ccccc2)C[C@H]2C(=O)N(c3ccccc3)C(=O)[C@@H]12)S(=O)(=O)c1ccc(C)cc1
- IC50 [12]: 16.5 µM (active)
- IC50 [13]: 42.3 µM (active)

Compound: COc1ccc(C(NC(=O)C2CCN(CCOc3ccc(Cl)cc3Cl)CC2)c2ccccc2C)cn1 (centres undefined)
- EC50 (Melanocortin receptor 4 [21]): > 89.2 µM (inactive)

Compound: COc1cccc(-c2ccc3c(c2)O[C@H](CN(C)C(=O)C2CCOCC2)[C@H](C)CN([C@H](C)CO)S3(=O)=O)c1
- AC50 [22]: 15.8 µM (active)

Compound: CCN1CCC(O)(/C=C/c2ccc(C(C)C)cc2)C(C(=O)/C=C/c2ccc(C(C)C)cc2)C1 (centres undefined)
- EC50 (Melanocortin receptor 4 [21]): > 89.2 µM (inactive)

Compound: COc1cccc(-c2nc(NCCN3CCOCC3)c3ccccc3n2)c1O
- AC50 [23]: 8.35 µM (active)
- AC50 [22]: 51.4 µM (active)
